In ChEMBL document CHEMBL1201862, “PubChem BioAssay data set” (2004):
Activity calls are given as the source filed them.

Columns and labels:
[1] = Luminescence Cell-Based Dose Retest to Confirm Activators of 5'UTR Stem-Loop Driven Alpha-Synuclein mRNA Translation in H4 Neuroglioblastoma Cells. [Related pubchem assays (depositor defined):AID1813, AID1829]; type: functional
[2] = Luminescence Cell-Based Dose HTS Response to Identify Inhibitors of 5'UTR Stem-Loop Driven Prion Protein mRNA Translation in H4-C Neuroglioblastoma Cells. [Related pubchem assays (depositor defined):AID1814, AID1827]; type: functional
[3] = Luminescence Cell-Based Dose Response HTS to Identify Inhibitors of Luciferase Translation or Activity in H4-C Neuroglioblastoma Cells. [Related pubchem assays: 1813 (Primary HTS), 1827 (Project Summary)]; type: functional
[4] = Luminescence Cell-Based Dose Response HTS to Identify Activators of 5'UTR Stem-Loop Driven Prion Protein mRNA Translation in H4-C Neuroglioblastoma Cells. [Related pubchem assays: 1829 (Project Summary), 1814 (Primary HTS)]; type: functional
[5] = Luminescence Cell-Based Dose Confirmation HTS to Identify Inhibitors of 5'UTR Stem-Loop Driven Alpha-Synuclein mRNA Translation in H4 Neuroglioblastoma Cells. [Related pubchem assays: 1827 (Project Summary), 1813 (Primary HTS)]; type: functional
[6] = Luminescence Cell-Based Dose Response HTS to Identify Activators of Luciferase Translation or Activity in H4-C Neuroglioblastoma Cells. [Related pubchem assays: 1829 (Project Summary), 1814 (Primary HTS)]; type: functional
Nonstructural protein 1 = Nonstructural protein 1 (Influenza A virus, UniProt Q194T2); type: functional, Influenza A virus (A/California/07/2009(H1N1))
Mucolipin-3 = Mucolipin-3 (Homo sapiens, UniProt Q8TDD5); test: Fluorescence counterscreen assay for […] agonists: dose response cell-based high-throughput screening assay to identify agonists of the transient receptor potential channel ML3 (TRPML3). [Related pubchem assays: 1424, 1448 ]; type: functional
Ion channel NompC = Ion channel NompC (Danio rerio, UniProt Q7T1G6); test: Dose response cell-based high-throughput screening assay for agonists of the transient receptor potential channel N1 (TRPN1). [Related pubchem assays (depositor defined):AID1424, AID1448]; type: functional
[7] = biological target: T1, Ubiquitin-conjugating enzyme E2 N (Homo sapiens, UniProt P61088); type: functional
T1 sequence (P61088 whole entry): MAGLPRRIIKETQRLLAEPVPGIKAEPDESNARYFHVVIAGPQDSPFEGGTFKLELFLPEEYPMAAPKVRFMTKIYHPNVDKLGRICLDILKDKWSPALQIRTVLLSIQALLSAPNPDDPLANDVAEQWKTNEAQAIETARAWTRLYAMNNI

Bcl-2-related protein A1 = biological target: T2, Bcl-2-related protein A1 (Mus musculus, UniProt Q07440); type: functional;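 also: confirmatory dose–response counterscreen on Bfl-1, used to check hits from a UBC13 polyubiquitin inhibitor campaign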
T2 sequence (Q07440 whole entry): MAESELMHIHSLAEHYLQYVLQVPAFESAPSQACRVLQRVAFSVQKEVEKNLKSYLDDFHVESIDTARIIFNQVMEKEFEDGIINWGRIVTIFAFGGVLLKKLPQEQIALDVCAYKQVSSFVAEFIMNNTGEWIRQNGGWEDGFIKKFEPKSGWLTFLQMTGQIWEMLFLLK

[8] = biological target: T1, Ubiquitin-conjugating enzyme E2 N; type: functional; remark: listed apart in the source
[9] = biological target: Peroxisome proliferator-activated receptor gamma/Nuclear receptor coactivator 1 (Homo sapiens, UniProt P37231); test: (§1) TR-FRET dose response biochemical High Throughput Screening assay for agonists of the steroid receptor coactivator 1 (SRC-1) recruitment by the peroxisome proliferator-activated receptor gamma (PPAR gamma): non-selective agonists. [Related pubchem assays (depositor defined):AID1300, AID1808, AID504735, AID631]; type: protein assay
[10] = biological target: Peroxisome proliferator-activated receptor gamma/Nuclear receptor coactivator 3 (Homo sapiens, UniProt P37231); test: as §1, with “3 (SRC-3)” for “1 (SRC-1)”, “assays: 1301 (Confirmation screen.), 1048 (Primary screen.)]” for “assays (depositor defined):AID1300, AID1808, AID504735, AID631]”; type: functional
[11] = biological target: Peroxisome proliferator-activated receptor gamma/Nuclear receptor coactivator 2 (Homo sapiens, UniProt P37231); test: TR-FRET dose response biochemical High Throughput Screening assay for agonists of the steroid receptor coactivator 2 (SRC-2) recruitment by the peroxisome proliferator-activated receptor gamma (PPAR gamma): non-selective agonists. [Related pubchem assays: 1297, 1032 ]; type: functional

Compound: Oc1ccccc1/N=N/c1ccccc1O
- EC50 [1]: 1.77 µM (inconclusive)
- EC50 [2]: 1.09 µM (active)
- EC50 [3]: 1.36 µM (active)
- EC50 [4]: 0.399 µM (inconclusive)
- EC50 [5]: 1.7 µM (active)
- EC50 [6]: 0.929 µM (inconclusive)

Compound: CCN1C(=O)/C(=C/C=C2\N(CC)c3cc(S(=O)(=O)N(C)C)ccc3N2c2ccccc2)SC1=S
- IC50 (Nonstructural protein 1): 55.3 µM (active)
- EC50 (Mucolipin-3): > 29.9 µM (not active)
- EC50 (Ion channel NompC): 1.62 µM (active)

Compound: CCOc1ccc(-c2csc(NC(=O)c3cccc(N4C(=O)CCC4=O)c3)n2)cc1
- IC50 [7]: 15.7 µM (active)
- IC50 (Bcl-2-related protein A1): > 20 µM (inactive)
- IC50 [8]: > 20 µM (inactive)

Compound: COCCNc1nc2ccccc2nc1NS(=O)(=O)c1ccc(C)cc1C
- EC50 [9]: > 79.4 µM (inactive)
- EC50 [10]: > 79.4 µM (not active)
- EC50 [11]: > 79.4 µM (not active)
